From US20100292205A1, “Pyrimidone Compounds As GSK-3 Inhibitors” (PFIZER INC., priority 2006, published 2010)
pIC50: −log10 of the molar value.

What follows are molecules tested against T1, Recombinant human GSK3β (Homo sapiens, UniProt P49841) (assay: GSK-3β (Glycogen Synthase Kinase) cell free enzyme assay). Conditions: cell free enzyme assay; Examples 62-155.
T1 construct: His-tag; made in house; host or cells: Sf9 insect cells / baculovirus
T1 sequence (P49841 whole entry): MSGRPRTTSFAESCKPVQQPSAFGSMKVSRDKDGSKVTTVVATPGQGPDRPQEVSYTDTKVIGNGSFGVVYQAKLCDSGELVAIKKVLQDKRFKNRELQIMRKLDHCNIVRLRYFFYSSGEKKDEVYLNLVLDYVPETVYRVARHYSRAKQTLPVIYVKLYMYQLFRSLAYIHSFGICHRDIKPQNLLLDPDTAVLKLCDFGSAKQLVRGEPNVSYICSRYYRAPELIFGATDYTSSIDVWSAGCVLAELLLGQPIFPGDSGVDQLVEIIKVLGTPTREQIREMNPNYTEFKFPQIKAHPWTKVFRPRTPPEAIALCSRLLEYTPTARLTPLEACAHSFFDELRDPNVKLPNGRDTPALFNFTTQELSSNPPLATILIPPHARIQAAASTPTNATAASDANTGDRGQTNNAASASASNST
Assay type: biochemical
Procedure, shortened: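 This cell-free kinase assay measured [33P] transfer from [33P]ATP gamma phosphate into the biotinylated peptide bio-LC-S-R-H-S-S-P-H-Q-pS-E-D-E-E-E-OH. After 60 min at RT, reactions were stopped with 0.66 volume of PBS lacking Ca or Mg containing 12.5 mM EDTA, 0.25% Triton-X 100, 125 uM ATP and 6.2 mg/ml streptavidin SPA beads. Bead-bound radioactivity was counted as CPM on a Trilux scintillation counter.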
`CCCC(C)C(=O)N1C[C@@H]2[C@H](C1)[C@H]2N(C)c1nc(-c2ccncc2F)cc(=O)n1C` (stereo partly drawn) [Example 100, 6-(3-Fluoropyridin-4-yl)-3-methyl-2-{methyl[(1R,5S,6s)-3-(2-methylpentanoyl)-3-azabicyclo[3.1.0]hex-6-yl]amino}pyrimidin-4(3H)-one] was tested, and the pIC50 was 8.04. With `COc1cccc(CC(=O)N2C[C@@H]3[C@H](C2)[C@H]3N(C)c2nc(-c3ccncc3F)cc(=O)n2C)c1` [Example 101, 6-(3-Fluoropyridin-4-yl)-2-[{(1R,5S,6s)-3-[(3-methoxyphenyl)acetyl]-3-azabicyclo[3.1.0]hex-6-yl}(methyl)amino]-3-methylpyrimidin-4(3H)-one] the pIC50 was 7.87. With `CSCCC(=O)N1C[C@@H]2[C@H](C1)[C@H]2N(C)c1nc(-c2ccncc2F)cc(=O)n1C` [Example 102, 6-(3-Fluoropyridin-4-yl)-3-methyl-2-(methyl{(1R,5S,6s)-3-[3-(methylthio)propanoyl]-3-azabicyclo[3.1.0]hex-6-yl}amino)pyrimidin-4(3H)-one] the pIC50 was 7.80. `CCC(C)C(=O)N1C[C@@H]2[C@H](C1)[C@H]2N(C)c1nc(-c2ccncc2F)cc(=O)n1C` (stereo partly drawn) [Example 103, 6-(3-Fluoropyridin-4-yl)-3-methyl-2-{methyl[(1R,5S,6s)-3-(2-methylbutanoyl)-3-azabicyclo[3.1.0]hex-6-yl]amino}pyrimidin-4(3H)-one] gave a pIC50 of 8.56. With `Cc1cc(C(=O)N2C[C@@H]3[C@H](C2)[C@H]3N(C)c2nc(-c3ccncc3F)cc(=O)n2C)cc(Cl)n1` [Example 104, 2-{[(1R,5S,6s)-3-(2-Chloro-6-methylisonicotinoyl)-3-azabicyclo[3.1.0]hex-6-yl](methyl)amino}-6-(3-fluoropyridin-4-yl)-3-methylpyrimidin-4(3H)-one] the pIC50 was 7.79. Molecule `CN(c1nc(-c2ccncc2F)cc(=O)n1C)[C@H]1[C@@H]2CN(C(=O)c3ccoc3)C[C@@H]21` [Example 105, 6-(3-Fluoropyridin-4-yl)-2-{[(1R,5S,6s)-3-(3-furoyl)-3-azabicyclo[3.1.0]hex-6-yl](methyl)amino}-3-methylpyrimidin-4(3H)-one] has a pIC50 of 8.06. `COc1ccccc1C(=O)N1C[C@@H]2[C@H](C1)[C@H]2N(C)c1nc(-c2ccncc2F)cc(=O)n1C` [Example 106, 6-(3-Fluoropyridin-4-yl)-2-{[(1R,5S,6s)-3-(2-methoxybenzoyl)-3-azabicyclo[3.1.0]hex-6-yl](methyl)amino}-3-methylpyrimidin-4(3H)-one] showed a pIC50 of 9.04. `CN(c1nc(-c2ccncc2F)cc(=O)n1C)[C@H]1[C@@H]2CN(C(=O)C3CCC3)C[C@@H]21` [Example 107, 2-{[(1R,5S,6s)-3-(Cyclobutylcarbonyl)-3-azabicyclo[3.1.0]hex-6-yl](methyl)amino}-6-(3-fluoropyridin-4-yl)-3-methylpyrimidin-4(3H)-one] gave a pIC50 of 7.74. Molecule `CN(c1nc(-c2ccncc2F)cc(=O)n1C)[C@H]1[C@@H]2CN(C(=O)C3CCCC3)C[C@@H]21` [Example 108, 2-{[(1R,5S,6s)-3-(Cyclopentylcarbonyl)-3-azabicyclo[3.1.0]hex-6-yl](methyl)amino}-6-(3-fluoropyridin-4-yl)-3-methylpyrimidin-4(3H)-one] has a pIC50 of 8.19. In the case of `COc1ccc(CC(=O)N2C[C@@H]3[C@H](C2)[C@H]3N(C)c2nc(-c3ccncc3F)cc(=O)n2C)cc1` [Example 109, 6-(3-Fluoropyridin-4-yl)-2-[{(1R,5S,6s)-3-[(4-methoxyphenyl)acetyl]-3-azabicyclo[3.1.0]hex-6-yl}(methyl)amino]-3-methylpyrimidin-4(3H)-one], the pIC50 was 8.39. `CC(C)CC(=O)N1C[C@@H]2[C@H](C1)[C@H]2N(C)c1nc(-c2ccncc2F)cc(=O)n1C` [Example 110, 6-(3-Fluoropyridin-4-yl)-3-methyl-2-{methyl[(1R,5S,6s)-3-(3-methylbutanoyl)-3-azabicyclo[3.1.0]hex-6-yl]amino}pyrimidin-4(3H)-one] showed a pIC50 of 7.74. Work on `CN(c1nc(-c2ccncc2F)cc(=O)n1C)[C@H]1[C@@H]2CN(C(=O)c3cccnc3Cl)C[C@@H]21` [Example 111, 2-[{(1R,5S,6s)-3-[(2-Chloropyridin-3-yl)carbonyl]-3-azabicyclo[3.1.0]hex-6-yl}(methyl)amino]-6-(3-fluoropyridin-4-yl)-3-methylpyrimidin-4(3H)-one] yielded a pIC50 of 8.66. `CN(c1nc(-c2ccncc2F)cc(=O)n1C)[C@H]1[C@@H]2CN(C(=O)c3ccnc(Cl)c3)C[C@@H]21` [Example 112, 2-{[(1R,5S,6s)-3-(2-Chloroisonicotinoyl)-3-azabicyclo[3.1.0]hex-6-yl](methyl)amino}-6-(3-fluoropyridin-4-yl)-3-methylpyrimidin-4(3H)-one] gave a pIC50 of 8.58. `CN(c1nc(-c2ccncc2F)cc(=O)n1C)[C@H]1[C@@H]2CN(C(=O)c3ccc(OC(F)F)cc3)C[C@@H]21` [Example 113, 2-[{(1R,5S,6s)-3-[4-(Difluoromethoxy)benzoyl]-3-azabicyclo[3.1.0]hex-6-yl}(methyl)amino]-6-(3-fluoropyridin-4-yl)-3-methylpyrimidin-4(3H)-one] was tested, and the pIC50 was 8.07. `CC(C)C(=O)N1C[C@@H]2[C@H](C1)[C@H]2N(C)c1nc(-c2ccncc2F)cc(=O)n1C` [Example 114, 6-(3-Fluoropyridin-4-yl)-2-{[(1R,5S,6s)-3-isobutyryl-3-azabicyclo[3.1.0]hex-6-yl](methyl)amino}-3-methylpyrimidin-4(3H)-one] was tested, and the pIC50 was 7.82. `CN(c1nc(-c2ccncc2F)cc(=O)n1C)[C@H]1[C@@H]2CN(C(=O)Cc3ccccc3)C[C@@H]21` [Example 115, 6-(3-Fluoropyridin-4-yl)-3-methyl-2-{methyl[(1R,5S,6s)-3-(phenylacetyl)-3-azabicyclo[3.1.0]hex-6-yl]amino}pyrimidin-4(3H)-one] was tested, and the pIC50 was 7.85. With `CN(c1nc(-c2ccncc2F)cc(=O)n1C)[C@H]1[C@@H]2CN(C(=O)c3cc(Cl)cc(Cl)c3)C[C@@H]21` [Example 116, 2-{[(1R,5S,6s)-3-(3,5-Dichlorobenzoyl)-3-azabicyclo[3.1.0]hex-6-yl](methyl)amino}-6-(3-fluoropyridin-4-yl)-3-methylpyrimidin-4(3H)-one] the pIC50 was 8.36. `CN(c1nc(-c2ccncc2F)cc(=O)n1C)[C@H]1[C@@H]2CN(C(=O)c3c(F)cc(F)cc3F)C[C@@H]21` [Example 117, 6-(3-Fluoropyridin-4-yl)-3-methyl-2-{methyl[(1R,5S,6s)-3-(2,4,6-trifluorobenzoyl)-3-azabicyclo[3.1.0]hex-6-yl]amino}pyrimidin-4(3H)-one] gave a pIC50 of 8.74. In the case of `CN(c1nc(-c2ccncc2F)cc(=O)n1C)[C@H]1[C@@H]2CN(C(=O)c3ccccc3F)C[C@@H]21` [Example 118, 2-{[(1R,5S,6s)-3-(2-Fluorobenzoyl)-3-azabicyclo[3.1.0]hex-6-yl](methyl)amino}-6-(3-fluoropyridin-4-yl)-3-methylpyrimidin-4(3H)-one], the pIC50 was 8.95. `CC(=O)O[C@@H](C)C(=O)N1C[C@@H]2[C@H](C1)[C@H]2N(C)c1nc(-c2ccncc2F)cc(=O)n1C` [Example 119, (1S)-2-[(1R,5S,6R)-6-{[4-(3-Fluoropyridin-4-yl)-1-methyl-6-oxo-1,6-dihydropyrimidin-2-yl](methyl)amino}-3-azabicyclo[3.1.0]hex-3-yl]-1-methyl-2-oxoethyl acetate] gave a pIC50 of 7.48. Molecule `CN(c1nc(-c2ccncc2F)cc(=O)n1C)[C@H]1[C@@H]2CN(C(=O)c3cnn(C)c3Cl)C[C@@H]21` [Example 120, 2-[{(1R,5S,6s)-3-[(5-Chloro-1-methyl-1H-pyrazol-4-yl)carbonyl]-3-azabicyclo[3.1.0]hex-6-yl}(methyl)amino]-6-(3-fluoropyridin-4-yl)-3-methylpyrimidin-4(3H)-one] has a pIC50 of 8.34. Molecule `CN(c1nc(-c2ccncc2F)cc(=O)n1C)[C@H]1[C@@H]2CN(C(=O)C(C)(C)C)C[C@@H]21` [Example 121, 2-{[(1R,5S,6s)-3-(2,2-Dimethylpropanoyl)-3-azabicyclo[3.1.0]hex-6-yl](methyl)amino}-6-(3-fluoropyridin-4-yl)-3-methylpyrimidin-4(3H)-one] has a pIC50 of 8.85. `CN(c1nc(-c2ccncc2F)cc(=O)n1C)[C@H]1[C@@H]2CN(C(=O)c3ccc(C(F)(F)F)cc3)C[C@@H]21` [Example 122, 6-(3-Fluoropyridin-4-yl)-3-methyl-2-(methyl{(1R,5S,6s)-3-[4-(trifluoromethyl)benzoyl]-3-azabicyclo[3.1.0]hex-6-yl}amino)pyrimidin-4(3H)-one] gave a pIC50 of 7.82. Molecule `CCCCOc1ccc(C(=O)N2C[C@@H]3[C@H](C2)[C@H]3N(C)c2nc(-c3ccncc3F)cc(=O)n2C)cc1` [Example 123, 2-{[(1R,5S,6s)-3-(4-Butoxybenzoyl)-3-azabicyclo[3.1.0]hex-6-yl](methyl)amino}-6-(3-fluoropyridin-4-yl)-3-methylpyrimidin-4(3H)-one] has a pIC50 of 7.87. `CN(c1nc(-c2ccncc2F)cc(=O)n1C)[C@H]1[C@@H]2CN(C(=O)c3ccc(F)c(Cl)c3)C[C@@H]21` [Example 124, 2-{[(1R,5S,6s)-3-(3-Chloro-4-fluorobenzoyl)-3-azabicyclo[3.1.0]hex-6-yl](methyl)amino}-6-(3-fluoropyridin-4-yl)-3-methylpyrimidin-4(3H)-one] showed a pIC50 of 8.34. Molecule `CN(c1nc(-c2ccncc2F)cc(=O)n1C)[C@H]1[C@@H]2CN(C(=O)c3cccc(C(F)(F)F)c3)C[C@@H]21` [Example 125, 6-(3-Fluoropyridin-4-yl)-3-methyl-2-(methyl{(1R,5S,6s)-3-[3-(trifluoromethyl)benzoyl]-3-azabicyclo[3.1.0]hex-6-yl}amino)pyrimidin-4(3H)-one] has a pIC50 of 8.68. In the case of `CN(c1nc(-c2ccncc2F)cc(=O)n1C)[C@H]1[C@@H]2CN(C(=O)c3ccc(Cl)nc3)C[C@@H]21` [Example 126, 2-[{(1R,5S,6s)-3-[(6-Chloropyridin-3-yl)carbonyl]-3-azabicyclo[3.1.0]hex-6-yl}(methyl)amino]-6-(3-fluoropyridin-4-yl)-3-methylpyrimidin-4(3H)-one], the pIC50 was 8.16.
